Experimental data as given in the kinase profiling compilation of Christmann-Franck et al. (2016).

Columns and labels:
Experiment in all cases: radiometric filter-binding kinase assay, Kinaseprofiler
ALK (human) = ALK (human) (UniProt Q9UM73); conditions: ATP 200 µM
CAMK1D (human) = CAMK1D (human) (UniProt Q8IU85); conditions: ATP 15 µM
CAMK2B (human) = CAMK2B (human) (UniProt Q13554); conditions: ATP 15 µM
CDK2 CCNA2 (human) = CDK2 CCNA2 (human) (UniProt P24941+P20248); conditions: ATP 45 µM
CDK3 CCNE1 (human) = CDK3 CCNE1 (human) (UniProt Q00526+P24864); conditions: ATP 200 µM
CDK7 CCNH MNAT1 (human) = CDK7 CCNH MNAT1 (human) (UniProt P50613+P51948+P51946); conditions: ATP 90 µM
CDK9 CCNT1 (human) = CDK9 CCNT1 (human) (UniProt P50750+O60563); conditions: ATP 45 µM
CLK2 (human) = CLK2 (human) (UniProt P49760); conditions: ATP 15 µM
[1] = target: CSNK2A1 CSNK2B CSNK2A2 (human) (UniProt P19784+P68400+P67870); conditions: ATP 15 µM
DMPK (human) = DMPK (human) (UniProt Q09013); conditions: ATP 10 µM
EPHA4 (human) = EPHA4 (human) (UniProt P54764); conditions: ATP 15 µM
EPHA7 (human) = EPHA7 (human) (UniProt Q15375); conditions: ATP 90 µM
FES (human) = FES (human) (UniProt P07332); conditions: ATP 45 µM
FGFR4 (human) = FGFR4 (human) (UniProt P22455); conditions: ATP 155 µM
FLT3 (human) = FLT3 (human) (UniProt P36888); conditions: ATP 200 µM
GRK7 (human) = GRK7 (human) (UniProt Q8WTQ7); conditions: ATP 15 µM
IRAK1 (human) = IRAK1 (human) (UniProt P51617); conditions: ATP 45 µM
[2] = test system: IRAK4 (human), Q9NWZ3 [A81V]; conditions: ATP 200 µM
MAP3K5 (human) = MAP3K5 (human) (UniProt Q99683); conditions: ATP 200 µM
MARK2 (human) = MARK2 (human) (UniProt Q7KZI7); conditions: ATP 15 µM
MELK (human) = MELK (human) (UniProt Q14680); conditions: ATP 45 µM
MINK1 (human) = MINK1 (human) (UniProt Q8N4C8); conditions: ATP 185 µM
NLK (human) = NLK (human) (UniProt Q9UBE8); conditions: ATP 200 µM
NTRK1 (human) = NTRK1 (human) (UniProt P04629); conditions: ATP 120 µM
NUAK1 (human) = NUAK1 (human) (UniProt O60285); conditions: ATP 45 µM
PLK2 (human) = PLK2 (human) (UniProt Q9NYY3); conditions: ATP 120 µM
PLK3 (human) = PLK3 (human) (UniProt Q9H4B4); conditions: ATP 70 µM
ROCK1 (human) = ROCK1 (human) (UniProt Q13464); conditions: ATP 70 µM
SGK3 (human) = SGK3 (human) (UniProt Q96BR1); conditions: ATP 155 µM
STK3 (human) = STK3 (human) (UniProt Q13188); conditions: ATP 155 µM
TSSK1B (human) = TSSK1B (human) (UniProt Q9BXA7); conditions: ATP 15 µM
WNK3 (human) = WNK3 (human) (UniProt Q9BYP7); conditions: ATP 200 µM

Sequence of FLT3 (human) (P36888 whole entry, looked up): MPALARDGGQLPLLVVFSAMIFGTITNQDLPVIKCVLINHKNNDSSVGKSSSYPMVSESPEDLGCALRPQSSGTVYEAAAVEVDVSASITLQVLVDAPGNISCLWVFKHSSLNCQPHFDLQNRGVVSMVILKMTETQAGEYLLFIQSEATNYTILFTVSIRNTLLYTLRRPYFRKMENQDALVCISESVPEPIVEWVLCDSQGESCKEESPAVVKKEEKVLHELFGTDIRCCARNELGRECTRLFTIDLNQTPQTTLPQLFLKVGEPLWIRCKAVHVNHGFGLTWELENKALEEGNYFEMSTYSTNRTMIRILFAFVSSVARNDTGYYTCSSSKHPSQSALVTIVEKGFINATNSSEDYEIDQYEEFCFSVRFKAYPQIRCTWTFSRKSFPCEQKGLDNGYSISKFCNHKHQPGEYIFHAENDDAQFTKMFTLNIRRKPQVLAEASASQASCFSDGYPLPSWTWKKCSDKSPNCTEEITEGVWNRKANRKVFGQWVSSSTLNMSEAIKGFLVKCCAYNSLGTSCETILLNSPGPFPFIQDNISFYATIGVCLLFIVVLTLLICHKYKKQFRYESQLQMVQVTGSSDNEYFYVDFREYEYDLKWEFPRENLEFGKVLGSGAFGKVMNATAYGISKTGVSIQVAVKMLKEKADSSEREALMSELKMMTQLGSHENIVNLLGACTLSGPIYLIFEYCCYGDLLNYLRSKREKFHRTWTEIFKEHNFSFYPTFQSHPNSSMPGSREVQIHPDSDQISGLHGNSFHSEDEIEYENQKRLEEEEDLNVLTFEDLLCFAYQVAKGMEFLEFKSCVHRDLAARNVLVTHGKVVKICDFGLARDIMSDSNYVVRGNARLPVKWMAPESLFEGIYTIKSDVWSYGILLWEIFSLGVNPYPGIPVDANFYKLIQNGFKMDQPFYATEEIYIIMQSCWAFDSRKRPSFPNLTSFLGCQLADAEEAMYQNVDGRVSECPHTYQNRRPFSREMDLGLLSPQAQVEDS
Sequence of TSSK1B (human) (Q9BXA7 whole entry, looked up): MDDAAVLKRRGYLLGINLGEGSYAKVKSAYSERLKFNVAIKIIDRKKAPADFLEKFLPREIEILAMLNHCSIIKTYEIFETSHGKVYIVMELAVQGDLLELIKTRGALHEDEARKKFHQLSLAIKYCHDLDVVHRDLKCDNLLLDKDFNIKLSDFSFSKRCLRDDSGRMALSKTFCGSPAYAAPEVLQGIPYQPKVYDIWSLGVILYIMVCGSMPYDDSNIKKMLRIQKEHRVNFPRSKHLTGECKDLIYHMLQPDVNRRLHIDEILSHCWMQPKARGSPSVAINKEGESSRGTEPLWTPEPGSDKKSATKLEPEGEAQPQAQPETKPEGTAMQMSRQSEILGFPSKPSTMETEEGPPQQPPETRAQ
Sequence of MELK (human) (Q14680 whole entry, looked up): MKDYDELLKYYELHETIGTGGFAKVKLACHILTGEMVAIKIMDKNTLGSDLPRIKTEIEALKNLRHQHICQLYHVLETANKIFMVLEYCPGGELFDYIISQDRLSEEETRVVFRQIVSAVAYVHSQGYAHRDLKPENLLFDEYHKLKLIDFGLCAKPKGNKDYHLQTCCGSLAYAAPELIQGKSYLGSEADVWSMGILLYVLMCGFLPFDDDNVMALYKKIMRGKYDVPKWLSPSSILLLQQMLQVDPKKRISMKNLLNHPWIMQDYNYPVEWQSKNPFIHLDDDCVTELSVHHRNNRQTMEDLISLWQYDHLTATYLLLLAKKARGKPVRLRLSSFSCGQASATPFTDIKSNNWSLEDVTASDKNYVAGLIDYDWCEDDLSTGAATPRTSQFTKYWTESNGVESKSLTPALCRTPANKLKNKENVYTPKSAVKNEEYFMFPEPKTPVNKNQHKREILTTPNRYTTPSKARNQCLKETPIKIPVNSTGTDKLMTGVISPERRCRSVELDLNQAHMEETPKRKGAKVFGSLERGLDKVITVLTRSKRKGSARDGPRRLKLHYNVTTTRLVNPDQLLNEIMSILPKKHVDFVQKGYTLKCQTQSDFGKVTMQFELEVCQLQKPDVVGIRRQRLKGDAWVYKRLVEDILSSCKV
Sequence of IRAK1 (human) (P51617 whole entry, looked up): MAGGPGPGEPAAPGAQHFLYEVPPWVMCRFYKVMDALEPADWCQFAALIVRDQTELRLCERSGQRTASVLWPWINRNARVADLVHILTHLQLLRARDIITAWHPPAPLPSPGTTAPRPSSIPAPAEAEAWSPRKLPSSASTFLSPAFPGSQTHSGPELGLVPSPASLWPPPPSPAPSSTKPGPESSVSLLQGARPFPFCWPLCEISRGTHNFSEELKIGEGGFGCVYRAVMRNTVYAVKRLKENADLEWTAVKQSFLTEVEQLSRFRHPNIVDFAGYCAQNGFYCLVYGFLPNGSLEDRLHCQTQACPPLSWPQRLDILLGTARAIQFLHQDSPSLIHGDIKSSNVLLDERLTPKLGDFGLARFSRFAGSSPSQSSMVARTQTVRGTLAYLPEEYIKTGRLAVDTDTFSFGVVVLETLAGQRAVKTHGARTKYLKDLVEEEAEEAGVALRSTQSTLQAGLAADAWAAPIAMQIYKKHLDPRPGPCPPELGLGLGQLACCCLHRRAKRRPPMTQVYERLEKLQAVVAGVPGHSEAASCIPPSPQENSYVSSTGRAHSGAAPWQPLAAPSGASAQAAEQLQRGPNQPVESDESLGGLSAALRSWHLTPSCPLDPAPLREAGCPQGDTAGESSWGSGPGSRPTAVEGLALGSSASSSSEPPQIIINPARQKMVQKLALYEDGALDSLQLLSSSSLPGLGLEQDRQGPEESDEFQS
Sequence of CAMK1D (human) (Q8IU85 whole entry, looked up): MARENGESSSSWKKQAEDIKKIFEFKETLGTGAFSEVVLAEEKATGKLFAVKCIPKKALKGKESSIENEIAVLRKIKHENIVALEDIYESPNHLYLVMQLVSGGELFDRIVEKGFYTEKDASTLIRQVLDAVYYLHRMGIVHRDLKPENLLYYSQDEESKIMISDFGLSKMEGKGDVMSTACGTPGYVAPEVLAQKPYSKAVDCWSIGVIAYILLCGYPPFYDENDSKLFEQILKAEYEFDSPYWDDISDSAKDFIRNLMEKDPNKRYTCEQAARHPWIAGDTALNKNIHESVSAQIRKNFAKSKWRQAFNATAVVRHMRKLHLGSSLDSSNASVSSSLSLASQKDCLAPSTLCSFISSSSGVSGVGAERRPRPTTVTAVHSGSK
Sequence of MAP3K5 (human) (Q99683 whole entry, looked up): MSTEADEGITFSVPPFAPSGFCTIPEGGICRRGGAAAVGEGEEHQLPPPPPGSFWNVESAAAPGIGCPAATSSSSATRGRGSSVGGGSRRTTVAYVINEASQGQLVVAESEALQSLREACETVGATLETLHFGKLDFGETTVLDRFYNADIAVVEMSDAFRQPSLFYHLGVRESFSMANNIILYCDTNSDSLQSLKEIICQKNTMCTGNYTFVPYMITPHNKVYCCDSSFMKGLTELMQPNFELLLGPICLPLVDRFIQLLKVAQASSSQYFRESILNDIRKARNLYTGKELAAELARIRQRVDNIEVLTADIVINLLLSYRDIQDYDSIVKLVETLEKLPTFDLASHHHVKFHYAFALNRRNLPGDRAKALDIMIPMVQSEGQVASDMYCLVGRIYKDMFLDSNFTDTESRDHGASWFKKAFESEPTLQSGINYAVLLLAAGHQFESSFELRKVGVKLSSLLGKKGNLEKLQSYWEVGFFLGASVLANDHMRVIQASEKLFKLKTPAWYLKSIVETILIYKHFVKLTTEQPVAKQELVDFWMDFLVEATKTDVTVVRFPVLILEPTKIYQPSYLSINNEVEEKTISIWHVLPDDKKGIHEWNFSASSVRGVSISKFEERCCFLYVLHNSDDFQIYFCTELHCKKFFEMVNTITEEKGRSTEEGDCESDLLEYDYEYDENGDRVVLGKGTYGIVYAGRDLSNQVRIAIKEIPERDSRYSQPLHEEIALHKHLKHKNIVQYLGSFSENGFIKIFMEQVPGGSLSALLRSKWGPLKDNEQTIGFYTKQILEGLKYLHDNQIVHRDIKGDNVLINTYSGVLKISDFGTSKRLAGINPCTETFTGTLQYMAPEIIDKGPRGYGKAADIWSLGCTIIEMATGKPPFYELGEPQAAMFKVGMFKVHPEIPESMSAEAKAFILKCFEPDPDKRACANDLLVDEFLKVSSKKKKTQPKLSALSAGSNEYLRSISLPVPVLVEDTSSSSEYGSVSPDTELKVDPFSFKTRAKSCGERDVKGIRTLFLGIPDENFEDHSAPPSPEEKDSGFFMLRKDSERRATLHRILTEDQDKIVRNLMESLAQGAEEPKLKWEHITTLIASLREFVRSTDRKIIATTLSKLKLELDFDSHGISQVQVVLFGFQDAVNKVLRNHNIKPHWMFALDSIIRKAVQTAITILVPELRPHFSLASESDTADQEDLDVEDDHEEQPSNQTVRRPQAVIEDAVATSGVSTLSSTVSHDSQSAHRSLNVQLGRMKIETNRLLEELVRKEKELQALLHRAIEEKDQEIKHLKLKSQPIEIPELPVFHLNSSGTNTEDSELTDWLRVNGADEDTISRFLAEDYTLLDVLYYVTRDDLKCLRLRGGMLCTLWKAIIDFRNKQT
Sequence of NLK (human) (Q9UBE8 whole entry, looked up): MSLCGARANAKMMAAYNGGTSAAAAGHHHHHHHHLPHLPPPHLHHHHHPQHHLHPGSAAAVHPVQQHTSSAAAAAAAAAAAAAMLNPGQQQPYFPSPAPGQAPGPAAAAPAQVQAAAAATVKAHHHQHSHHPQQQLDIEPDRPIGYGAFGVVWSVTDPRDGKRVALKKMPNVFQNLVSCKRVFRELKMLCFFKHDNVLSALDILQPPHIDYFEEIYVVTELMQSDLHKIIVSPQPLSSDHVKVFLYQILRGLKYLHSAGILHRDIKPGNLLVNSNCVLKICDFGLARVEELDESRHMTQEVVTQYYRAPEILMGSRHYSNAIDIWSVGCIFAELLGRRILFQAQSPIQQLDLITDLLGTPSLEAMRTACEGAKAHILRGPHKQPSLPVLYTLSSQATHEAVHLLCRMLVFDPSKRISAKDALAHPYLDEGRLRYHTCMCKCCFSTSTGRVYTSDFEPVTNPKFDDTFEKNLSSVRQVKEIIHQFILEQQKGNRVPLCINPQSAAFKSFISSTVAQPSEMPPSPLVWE

A residual activity (ALK (human); compound 1.0 µM) of 52%, a residual activity (ALK (human); compound 10.0 µM) of 18% and a residual activity (CAMK1D (human); compound 1.0 µM) of 71% were found for O=C1Nc2ccccc2/C1=C1\Nc2ccccc2\C1=N/O in this work. For the same molecule, the residual activity (CAMK1D (human); compound 10.0 µM) was 56%, the residual activity (CAMK2B (human); compound 1.0 µM) was 33% and the residual activity (CAMK2B (human); compound 10.0 µM) was 11%. The residual activity (CDK2 CCNA2 (human); compound 1.0 µM) was 19%, the residual activity (CDK2 CCNA2 (human); compound 10.0 µM) was 5% and the residual activity (CDK3 CCNE1 (human); compound 1.0 µM) was 5%. For the same molecule, the residual activity (CDK3 CCNE1 (human); compound 10.0 µM) was 0%, the residual activity (CDK7 CCNH MNAT1 (human); compound 1.0 µM) was 42% and the residual activity (CDK7 CCNH MNAT1 (human); compound 10.0 µM) was 16%. The residual activity (CDK9 CCNT1 (human); compound 1.0 µM) was 26%, the residual activity (CDK9 CCNT1 (human); compound 10.0 µM) was 11% and the residual activity (CLK2 (human); compound 1.0 µM) was 14%. For the same molecule, the residual activity (CLK2 (human); compound 10.0 µM) was 4%, the residual activity ([1]; compound 1.0 µM) was 112% and the residual activity ([1]; compound 10.0 µM) was 78%. It also gave a residual activity (DMPK (human); compound 1.0 µM) of 109%, a residual activity (DMPK (human); compound 10.0 µM) of 83% and a residual activity (EPHA4 (human); compound 1.0 µM) of 96%. For the same molecule, the residual activity (EPHA4 (human); compound 10.0 µM) was 83%, the residual activity (EPHA7 (human); compound 1.0 µM) was 70% and the residual activity (EPHA7 (human); compound 10.0 µM) was 15%. It also gave a residual activity (FES (human); compound 1.0 µM) of 72%, a residual activity (FES (human); compound 10.0 µM) of 30% and a residual activity (FGFR4 (human); compound 1.0 µM) of 100%. The residual activity (FGFR4 (human); compound 10.0 µM) was 45%, the residual activity (FLT3 (human); compound 1.0 µM) was 1% and the residual activity (FLT3 (human); compound 10.0 µM) was 0%. For the same molecule, the residual activity (GRK7 (human); compound 1.0 µM) was 73%, the residual activity (GRK7 (human); compound 10.0 µM) was 18% and the residual activity (IRAK1 (human); compound 1.0 µM) was 60%. For the same molecule, the residual activity (IRAK1 (human); compound 10.0 µM) was 11%, the residual activity ([2]; compound 1.0 µM) was 41% and the residual activity ([2]; compound 10.0 µM) was 6%. It also gave a residual activity (MAP3K5 (human); compound 1.0 µM) of 52%, a residual activity (MAP3K5 (human); compound 10.0 µM) of 7% and a residual activity (MARK2 (human); compound 1.0 µM) of 48%. The residual activity (MARK2 (human); compound 10.0 µM) was 14%, the residual activity (MELK (human); compound 1.0 µM) was 15% and the residual activity (MELK (human); compound 10.0 µM) was 7%. It also gave a residual activity (MINK1 (human); compound 1.0 µM) of 54%, a residual activity (MINK1 (human); compound 10.0 µM) of 10% and a residual activity (NLK (human); compound 1.0 µM) of 82%. The residual activity (NLK (human); compound 10.0 µM) was 67%, the residual activity (NTRK1 (human); compound 1.0 µM) was 0% and the residual activity (NTRK1 (human); compound 10.0 µM) was 0%. It also gave a residual activity (NUAK1 (human); compound 1.0 µM) of 4%, a residual activity (NUAK1 (human); compound 10.0 µM) of 7% and a residual activity (PLK2 (human); compound 1.0 µM) of 97%. The residual activity (PLK2 (human); compound 10.0 µM) was 82%, the residual activity (PLK3 (human); compound 1.0 µM) was 96% and the residual activity (PLK3 (human); compound 10.0 µM) was 91%. It also gave a residual activity (ROCK1 (human); compound 1.0 µM) of 108%, a residual activity (ROCK1 (human); compound 10.0 µM) of 92% and a residual activity (SGK3 (human); compound 1.0 µM) of 89%. For the same molecule, the residual activity (SGK3 (human); compound 10.0 µM) was 56%, the residual activity (STK3 (human); compound 1.0 µM) was 6% and the residual activity (STK3 (human); compound 10.0 µM) was 0%. It also gave a residual activity (TSSK1B (human); compound 1.0 µM) of 78%, a residual activity (TSSK1B (human); compound 10.0 µM) of 53% and a residual activity (WNK3 (human); compound 1.0 µM) of 89%. The residual activity (WNK3 (human); compound 10.0 µM) was 60%.
